“Also recorded” adds a separate entry of the source.
Assays:
[1] = Metabolic stability in hepatocytes; assay type: in vitro ADME; details: human, 60-90 min test; for hepatocyte CLint: read-out: Metabolic stability, Human hepatocytes: Clearance; for half-life: read-out: Metabolic stability, Human hepatocytes: t1/2
[2] = test system: phospho RB1 Ser807/811; assay: In vivo target engagement (phospho-RB staining of tissues); design: species or system mice; details: FIG. 7
Description: FIG. 7 depicts the effect of PS004, PS006 and PS009 on the phosphorylation of the retinoblastoma protein in different tissues using antibodies against phospho RB1 Ser807/811. Micrographs are representative from three different mice per treatment.
For histological analysis, mice tissues and human xenografts were fixed in 10%-buffered formalin (Sigma) and embedded in paraffin wax. Sections of 3- or 5-μm thickness were stained with haematoxylin and eosin. Additional immunohistochemical examination was performed using a specific antibody against phospho-Rb (Ser807/811; Cell Signaling) or Ki67 (DAKO).
For in vivo evaluation, the target engagement for the subject compounds in vivo was tested first.

[3] = test system: SW1783 glioblastoma cell line (pRB mutant); assay: Proliferation assay: determination of GI50; assay type: cell-based; details: Homo sapiens, Table 4, n = 4, read-out: Growth inhibition GI50, Glioblastoma pRB Mutant SW1783
Method: (§1) The following human tumor cell lines, all Retinoblastoma (Rb)-proficient, were used in this study: MDA-MB231 (breast cancer), MDA-MB453 (breast cancer), U87MG (glioblastoma) and H460 (lung cancer). MDA-MB468 (breast cancer) and SW1783 (glioblastoma) Rb-deficient cells were also included in the study, as well as the MCF10A non-transformed mammary epithelial cell line. Tumor cell lines were maintained in DMEM or RPMI-1640 medium, depending on the cell line, supplemented with 10% FBS. MCF10A cells were grown in complete mammary epithelial growth medium (MEGM, Lonza). Cell lines were authenticated by short tandem repeat (STR) loci profiling with the GenePrint® 10 System (Promega).
(§2) All human cancer cell lines (Table 2) were obtained from the American Type Culture Collection, and were maintained in DMEM (Hyclone) or RPMI-1640 medium (Sigma) supplemented with 10% fetal bovine serum (Sigma). Non-transformed MCF10 cell line was maintained in MEGM Mammary Epithelial Cell Growth Medium (Lonza). Immortalized mouse embryonic fibroblasts (MEFs) were maintained in DMEM with 10% fetal bovine serum.
(§3) 48 h later cells were fixed with PFA 4% for 15 minutes, stained with 10 μg/ml Hoechst 33342 (Molecular Probes, Thermo Fisher) for 30 minutes and washed twice with PBS. Cells were imaged in a high content screening system (Opera Phoenix™, Perkin Elmer) using a 20× dry objective (30 fields/well). Cell counts were determined by the Opera software (Perkin Elmer) and data were further processed with SPSS software. GI50 was calculated by estimating the absolute IC50 using dose-response inhibition tool in Prism6 (Graphpad Software Inc.).

[4] = test system: MDA-MB-468 breast carcinoma cell line (pRB mutant); assay: Proliferation assay: determination of GI50; assay type: cell-based; details: Homo sapiens, Table 4, n = 2, read-out: Growth inhibition GI50, Breast cancer pRB Mutant MDA-MB-468
Method: as §1, §2, §3

[5] = Toxicologic evaluation in vivo; details: 50 or 100 mg/kg intraperitoneally twice a week for two weeks; for blood counts (white blood cells, lymphocytes) / mouse weight: FIG. 10; for lung toxicity (hemorrhage in the lungs), mice affected: FIG. 11; for mouse weight: vs DMSO
[6] = test system: pRB-wild-type and pRB-deficient breast cancer cells (MDA-MB-231, MDA-MB-468); assay: GI50 compared in pRB-wild-type and pRB-deficient cells; assay type: cell-based, human; details: comparison of GI50, Table 4
Method: […]. Cell counts were determined by the Opera software (Perkin Elmer) and data were further processed with SPSS software. GI50 was calculated by estimating the absolute IC50 using dose-response inhibition tool in Prism6 (Graphpad Software Inc.).
CDK4/6 kinases drive cell cycle progression by phosphorylating the retinoblastoma protein (pRB), thus, releasing its repressive activity on transcription. Accordingly, CDK4/6 specific inhibitors are inefficient in pRB-deficient cells, as cell cycle transcription is induced with independence of CDK4/6 activity. The subject compounds were therefore evaluated to what extent depend on the presence of a functional pRB. Two pairs of human cancer cell lines representing pRB-wild-type and pRB-deficient breast cancer and glioblastoma were tested. […].

[7] = test system: Cdk4/6_KO MEFs; assay: Cell growth in Cdk-deficient MEFs; assay type: cell-based, mouse; details: relative cell count day 6 versus day 3; FIG. 4
Method: (§4) Cdk-deficient MEFs were plated in 10-cm dish in triplicate (100,000/well) and treated with the selected compounds at the indicated concentration, based on GI50 previously determined in the MDA-MB-231 cell line. Cells were counted in an optical microscope 3 and 6 days after treatment to estimate the relative cell growth in each condition.
(§5) To further investigate the relative functional dependence of the subject compounds on CDK2 versus CDK4 or CDK6, the specific effects of PS004, PS006 and PS009 were tested on CDK-deficient mouse embryonic fibroblasts (MEFs) obtained from Cdk2 knock out, Cdk4; Cdk6-double knock out and Cdk2; Cdk4; Cdk6-triple knock out mouse models.

[8] = test system: Cdk2/4/6_KO MEFs; assay: Cell growth in Cdk-deficient MEFs; assay type: cell-based, mouse; details: relative cell count day 6 versus day 3; FIG. 4
Method: as §4, §5

[9] = test system: MDA-MB-231 cells; assay: Senescence assay (β-Galactosidase staining); assay type: cell-based, human; details: at GI50; 3 days or 14 days exposure; FIGS. 2 and 3
Method: MDA-MB-231 cells were seeded in 6-well plates (65,000 cells/well) and treated with the selected compounds at their respective GI50. At 3, 7 and 14 days after treatment cells were stained with Senescence β-Galactosidase Staining Kit (Cell Signaling) at 37° C. overnight. Blue coloured senescent cells were counted with an optical microscope. Medium and compounds were refreshed every 3 days.
Cell cycle arrest can be irreversible in case of senescence induction.

[10] = Metabolic stability in microsomes; assay type: in vitro ADME; details: human, 60-90 min test; for microsomal CLint: read-out: Metabolic stability, Human microsomes: Clearance; for half-life: read-out: Metabolic stability, Human microsomes: t1/2
[11] = Kinetic solubility (pH 7.4); assay type: physicochemical; details: pH 7.4, aqueous buffer, kinetic from dmso stock
[12] = test system: human cancer cell lines (MDA-MB-231, U87-MG, H460) and MCF10; assay: Suppression of proliferation of human cancer cell lines, results in words; assay type: cell-based; details: summary of Table 3
Method: as §3
The cell growth inhibitions of the subject compounds were tested in multiple human cancer cell lines with wild-type Retinoblastoma protein: MDA-MB-231 (breast), U87-MG (glioblastoma), H460 (lung); and MCF10 (as an example of non-transformed human cells) and mutant cells.

Row | SMILES | hepatocyte CLint [1] [µL/min/1e6 cells] | half-life [1] [min] | phospho-RB staining in bone marrow, intestine and spleen [2] | GI50 [3] [µM] | GI50 [4] [µM] | blood counts (white blood cells, lymphocytes) [5] | lung toxicity (hemorrhage in the lungs), mice affected [5] | mouse weight [5] | efficiency in pRB-null versus pRB-wild-type breast cancer cells [6] | cell proliferation of Cdk4; Cdk6-double knock out MEFs [7] | cell proliferation of Cdk2; Cdk4; Cdk6-triple knock out MEFs [8] | SA-βGAL staining (senescence induction) [9] | microsomal CLint [10] [µL/min/mg] | half-life [10] [min] | solubility kinetic [11] [µM] | histopathology of the spleen [5] | suppression of cell proliferation [12] | histopathology of the bone marrow [5] | histopathology of the intestine [5]
1 | CC(=O)c1c(C)c2cnc(Nc3ccc(N4CCC(CCCO)CC4)cc3)nc2n(C2CCCC2)c1=O [PS009, 6-acetyl-8-cyclopentyl-2-((4-(4-(3-hydroxypropyl)piperidin-1-yl)phenyl)amino)-5-methylpyrido[2,3-d]pyrimidin-7(8H)-one] | 41.7 | 33.3 | evident RB target inhibition | 8 | 3.9 | no defects in blood counts | 1 out of 6 | induced weight loss | equally efficient | efficient in preventing cell proliferation | efficient in preventing cell proliferation | induced high levels of SA-βGAL staining; also recorded: very high SA-BGAL activity induction | 33 | 42 | < 1 |  |  |  | 
2 | CC(O)COC1CCN(c2ccc(Nc3ncc4ccc(=O)n([C@@H]5CC6CCC5C6)c4n3)cc2)CC1 (stereo partly drawn) [PS006, 8-((2R)-bicyclo[2.2.1]heptan-2-yl)-2-((4-(4-(2-hydroxypropoxy)piperidin-1-yl)phenyl)amino)pyrido[2,3-d]pyrimidin-7(8H)-one] | 49 | 28.3 |  | 2.2 | 2.5 |  | 1 out of 6 |  | equally efficient | efficient in preventing cell proliferation | efficient in preventing cell proliferation | induced high levels of SA-βGAL staining; also recorded: induced high senescence | 119 | 11.6 | < 1 | active extramedullar hematopoiesis | potent cell growth inhibition |  | 
3 | CC(=O)c1c(C)c2cnc(Nc3ccc(N4CCC(CCCO)CC4)cc3)nc2n([C@@H]2CC3CCC2C3)c1=O (stereo partly drawn) [PS008, 6-acetyl-8-((2R)-bicyclo[2.2.1]heptan-2-yl)-2-((4-(4-(3-hydroxypropyl)piperidin-1-yl)phenyl)amino)-5-methylpyrido[2,3-d]pyrimidin-7(8H)-one] |  |  |  |  |  |  |  |  |  |  |  | induced high levels of SA-βGAL staining |  |  |  |  |  |  | 
4 | CC(O)CCC1CCN(c2ccc(Nc3ncc4ccc(=O)n([C@@H]5CC6CCC5C6)c4n3)cc2)CC1 (stereo partly drawn) [PS004, 8-((2R)-bicyclo[2.2.1]heptan-2-yl)-2-((4-(4-(3-hydroxybutyl)piperidin-1-yl)phenyl)amino)pyrido[2,3-d]pyrimidin-7(8H)-one] | < 6.4 | > 217 | evident RB target inhibition | 11.5 | 3 | reduced lymphocyte counts | 4 out of 6 |  |  | efficient in preventing cell proliferation | efficient in preventing cell proliferation |  | 40.8 | 34 | < 1 | active extramedullar hematopoiesis | inhibited cell growth with high potential | hypoplasia/reactive bone marrow | aberrant mitotic figures
5 | O=c1ccc2cnc(Nc3ccc(N4CCC(CCCO)CC4)cc3F)nc2n1[C@@H]1CC2CCC1C2 (stereo partly drawn) [PS002, 8-((2R)-bicyclo[2.2.1]heptan-2-yl)-2-((2-fluoro-4-(4-(3-hydroxypropyl)piperidin-1-yl)phenyl)amino)pyrido[2,3-d]pyrimidin-7(8H)-one] |  |  |  |  |  |  |  |  |  |  |  |  |  |  |  |  | exception |  | 
6 | O=c1ccc2cnc(Nc3ccc(N4CCC(CCCO)CC4)c(F)c3)nc2n1[C@@H]1CC2CCC1C2 (stereo partly drawn) [PS003, 8-((2R)-bicyclo[2.2.1]heptan-2-yl)-2-((3-fluoro-4-(4-(3-hydroxypropyl)piperidin-1-yl)phenyl)amino)pyrido[2,3-d]pyrimidin-7(8H)-one] |  |  |  |  |  |  |  |  |  |  |  | induced high levels of SA-βGAL staining |  |  |  |  |  |  | 
7 | O=c1ccc2cnc(Nc3ccc(N4CCC(CCCO)CC4)cc3)nc2n1C1CC2CCC1C2 (stereo not drawn) [PD-0183812, reference compound] |  |  |  |  |  |  | 6 out of 6 | induced significant weight loss |  |  |  | induced high levels of SA-βGAL staining |  |  |  | active extramedullar hematopoiesis |  | hypoplasia/reactive bone marrow | aberrant mitotic figures
